16 molecules from patent US20230091336A1, “CANNABINOID COMPOSITIONS” (priority 2020, published 2023) can be followed below.

In assay [1] the test system is SOCE in Jurkat T cells. The assay is described as follows: SOCE Fura-2 bioassay in Jurkat cells. The class given is cell-based, human. The conditions noted are these: for combinatory effect on SOCE inhibition when paired with CBGA (isobolographic analysis): pairs expected to inhibit 50%, FIGS. 10A-10T; for effect on SOCE Ca^2+ signals, pure compounds: 10 μM, 1 μM thapsigargin, FIG. 7A, 7C.

For assay [2], the system named is SOCE in Luva human mast cells. In words: SOCE Fura-2 bioassay in Luva cells. The note with it: Table 5.
Method: (§1) Briefly, SOCE inhibition experiments were performed as described in Example 8, using each of the hemp extracts listed below and in Tables 6A and 6B at six concentrations each in each of the five cell types listed above to obtain dose response curves, as shown in FIGS. 11A-11SS. […] All data are averages of three independent runs±SEM. […] Hemp extracts used in FIGS. 11A-11SS are: Sour Space Candy (SSC), Hawaiian Haze (HH), Special Sauce (SS), Suver Haze (SH), White CBG (WCBG), Elektra (ELEK), Cherry Wine (CW), Lifter (LIF), Grape Soda (GS).
The test system of assay [3] is SOCE in U937 human monocytes. In words: SOCE Fura-2 bioassay in U937 cells. The conditions noted are these: Table 5.
Method: as §1
Assay [4] has as its system SOCE in HEK-293 human embryonic kidney cells. In words: SOCE Fura-2 bioassay in HEK293 cells. The class given is cell-based. The conditions noted are these: for IC50: Table 5; for inhibitory effect in immune cells compared with non-immune HEK293 cells: 10 μM, HEK293 (FIG. 8) vs immune cells.
For assay [5], the system named is SOCE in THP-1 human monocytes. In words: SOCE Fura-2 bioassay in THP-1 cells. The note with it: for combinatory effect when paired with 2.2 μM CBGA: 10 μM cannabinoid + 2.2 μM CBGA, FIG. 10Z; for combinatory effect on SOCE inhibition when paired with CBGA (isobolographic analysis): pairs expected to inhibit 50%, FIGS. 10U-10Y.
Assay [6] has as its system SOCE in RBL-2H3 rat mast cells. The assay is described as follows: SOCE Fura-2 bioassay in RBL-2H3 cells. The note with it: Table 5.
Method: as §1
The mark [7] stands for this setting: Homo sapiens, read-out: IC50 SOCE, purified cannabinoids, Jurkat, Table 5.
[8] abbreviates: Homo sapiens, Mast cell, read-out: IC50 SOCE, purified cannabinoids, Luva.
Setting [9] is: Homo sapiens, U-937, read-out: IC50 SOCE, purified cannabinoids, U937.
Setting [10] is: Homo sapiens, HEK293, read-out: IC50 SOCE, purified cannabinoids, HEK-293.
Where [11] appears, read: Homo sapiens, THP-1, read-out: IC50 SOCE, purified cannabinoids.
Where [12] appears, read: Rattus norvegicus, RBL-2H3, read-out: IC50 SOCE, purified cannabinoids, RBL-2H3.

Where two headings read alike, the source gives them in different places.

The IC50 is the concentration needed to halve the response being measured. For `CCCCCc1cc(O)c2c(c1)OC(C)(C)[C@@H]1CC=C(C)C[C@@H]21` [Δ8-THC, (6aR,10aR)-6,6,9-trimethyl-3-pentyl-6a,7,10,10a-tetrahydro-6H-benzo[c]chromen-1-ol], the IC50 in assay [1] (setting [7]) is 14.2 µM; in assay [2] (setting [8]) it was 39.7 µM; in assay [3] (setting [9]) it was > 50 µM; in assay [4] (setting [10]), > 50 µM; in assay [5] (setting [11]), > 50 µM; in assay [6] (setting [12]), > 50 µM. For the same molecule, the “combinatory effect on SOCE inhibition when paired with CBGA (isobolographic analysis)” value in assay [1] is recorded as “sub-additive”. Moreover, the “combinatory effect when paired with 2.2 μM CBGA” value (shortened to “combinatory effect when paired”) in assay [5] (THP-1) is reported as “sub-additive”.

With `CCCc1cc(O)c(C/C=C(\C)CCC=C(C)C)c(O)c1` [CBGV, (E)-2-(3,7-dimethylocta-2,6-dien-1-yl)-5-propylbenzene-1,3-diol], the concentration for half-maximal inhibition (IC50) is 5.27 µM in assay [1] (setting [7]); 6.46 µM in assay [2] (setting [8]); 14.5 µM in assay [3] (setting [9]); 9.16 µM in assay [4] (setting [10]); 40.7 µM in assay [5] (setting [11]); 30.9 µM in assay [6] (setting [12]). Besides, in assay [1], the “combinatory effect on SOCE inhibition when paired with CBGA (isobolographic analysis)” value is listed as “supra-additive”. Further, in assay [5] (THP-1), the “combinatory effect when paired” value is on record as “simple additive agonists”.

In the case of `C=C(C)c1ccc(C)cc1-c1c(O)cc(CCCCC)cc1O` [CBND, 5′-methyl-4-pentyl-2′-(prop-1-en-2-yl)-[1,1′ biphenyl]-2,6-diol], the IC50 was 6.7 µM in assay [1] (setting [7]); 19 µM in assay [2] (setting [8]); 24 µM in assay [3] (setting [9]); 21.4 µM in assay [4] (setting [10]); > 50 µM in assay [5] (setting [11]); 32.8 µM in assay [6] (setting [12]). Besides, the “combinatory effect on SOCE inhibition when paired with CBGA (isobolographic analysis)” value in assay [1] was “Simple additive”.

Turning to `CCCCCc1cc2c(c(O)c1C(=O)O)-c1cc(C)ccc1C(C)(C)O2` [CBNA, 1-hydroxy-6,6,9-trimethyl-3-pentyl-6H-benzo[c]chromene-2-carboxylic acid], the IC50 in assay [1] (setting [7]) is 0.99 µM; in assay [2] (setting [8]) it was > 50 µM; in assay [3] (setting [9]), 19.2 µM; in assay [4] (setting [10]), 29.5 µM; in assay [5] (setting [11]), 7.25 µM; in assay [6] (setting [12]), 22.5 µM. Besides, the “combinatory effect on SOCE inhibition when paired with CBGA (isobolographic analysis)” value in assay [1] is given as “Simple additive”; in assay [5] (THP-1) it was “sub-additive”.

As to `CCCCCc1cc(O)c2c(c1)O[C@]1(C)CC[C@@H]3C1[C@@H]2C3(C)C` (stereo partly drawn) [CBL, (1aS,1a1R,3aR,8bR)-1,1,3a-trimethyl-6-pentyl-1a,1a1,2,3,3a,8b-hexahydro-1H-4-oxabenzo[f]cyclobuta[cd]inden-8-ol], the IC50 in assay [1] (setting [7]), in assay [2] (setting [8]), in assay [3] (setting [9]), in assay [4] (setting [10]), in assay [5] (setting [11]) and in assay [6] (setting [12]) was > 50 µM in each case. Besides, the “combinatory effect on SOCE inhibition when paired with CBGA (isobolographic analysis)” value in assay [1] is listed as “Simple additive”.

Take `CCCc1cc(O)c(C/C=C(\C)CCC=C(C)C)c(O)c1C(=O)O` [CBGVA, (E)-3-(3,7-dimethylocta-2,6-dien-1-yl)-2,4-dihydroxy-6-propylbenzoic acid]: the IC50 was 1.15 µM in assay [1] (setting [7]); 2.53 µM in assay [2] (setting [8]); 2.86 µM in assay [3] (setting [9]); 2.11 µM in assay [4] (setting [10]); 2.6 µM in assay [5] (setting [11]); 4.15 µM in assay [6] (setting [12]). Also, the “combinatory effect on SOCE inhibition when paired with CBGA (isobolographic analysis)” value is recorded as “Simple additive” in assay [1] and “sub-additive” in assay [5] (THP-1).

For `CCCCCc1cc2c(c(O)c1C(=O)O)[C@@H]1[C@H]3C(CC[C@@]3(C)O2)C1(C)C` (stereo partly drawn) [CBLA, (1aS,1a1R,3aR,8bR)-8-hydroxy-1,1,3a-trimethyl-6-pentyl-1a, 1a1,2,3,3a, 8b-hexahydro-1H-4-oxabenzo[f]cyclobuta[cd]indene-7-carboxylic acid], the IC50 in assay [1] (setting [7]) was 9.29 µM; in assay [2] (setting [8]) it was 20.9 µM; in assay [3] (setting [9]) it was 28.3 µM; in assay [4] (setting [10]), 31.1 µM; in assay [5] (setting [11]), 12.4 µM; in assay [6] (setting [12]), > 50 µM. Moreover, the “combinatory effect on SOCE inhibition when paired with CBGA (isobolographic analysis)” value in assay [1] is given as “sub-additive”.

As for `C=C(C)[C@@H]1CCC(C)=C[C@H]1c1c(O)cc(CCCCC)c(C(=O)O)c1O` [CBDA, (1′R,2′R)-2,6-dihydroxy-5′-methyl-4-penlyl-2′-(prop-1-en-2-yl)-1′,2′,3′,4′-tetrahydro-[1,1′-biphenyl]-3-carboxylic acid], the “effect on SOCE Ca^2+ signals, pure compounds” value in assay [1] is listed as “fully block the Ca^2+ signals”. For the same molecule, the IC50 was 4.07 µM in assay [1] (setting [7]); 2.4 µM in assay [2] (setting [8]); 5.83 µM in assay [3] (setting [9]); 26.9 µM in assay [4] (setting [10]); 5.17 µM in assay [5] (setting [11]); 16.1 µM in assay [6] (setting [12]). Moreover, the “combinatory effect on SOCE inhibition when paired with CBGA (isobolographic analysis)” value in assay [1] and in assay [5] (THP-1) was “sub-additive” in each case. In addition, the “inhibitory effect in immune cells compared with non-immune HEK293 cells” value in assay [4] is listed as “selective”.

Consider `CCCCCc1cc(O)c2c(c1)OC(C)(C)c1ccc(C)cc1-2` [CBN, 6,6,9-trimethyl-3-pentyl-6H-benzo[c]chromen-1-ol], for which the IC50 in assay [1] (setting [7]) was 9.09 µM; in assay [2] (setting [8]) it was 33.4 µM; in assay [3] (setting [9]), 45.3 µM; in assay [4] (setting [10]), 26.9 µM; in assay [5] (setting [11]), > 50 µM; in assay [6] (setting [12]), 42.6 µM. Moreover, in assay [1], the “combinatory effect on SOCE inhibition when paired with CBGA (isobolographic analysis)” value was “Simple additive”. In addition, the “combinatory effect when paired” value in assay [5] (THP-1) is listed as “simple additive agonists”.

As to `CCCc1cc(O)c2c(c1)OC(C)(C)[C@@H]1CCC(C)=C[C@@H]21` [THCV, trimethyl-3-propyl-6a,7,8,10a-tetrahydro-6H-benzo[c]chromen-1-ol], the IC50 in assay [1] (setting [7]) was 10.7 µM; in assay [2] (setting [8]) it was > 50 µM; in assay [3] (setting [9]), > 50 µM; in assay [4] (setting [10]) it was > 50 µM; in assay [5] (setting [11]), > 50 µM; in assay [6] (setting [12]) it was > 50 µM.

For `C=C(C)[C@@H]1CCC(C)=C[C@H]1c1c(O)cc(CCC)c(C(=O)O)c1O` [CBDVA, (1′R,2′R)-2,6-dihydroxy-5′-methyl-2′-(prop-1-en-2-yl)-4-propyl-1′,2′,3′,4′-tetrahydro-[1,1′-biphenyl]-3-carboxylic acid], the half-maximal inhibitory concentration (IC50) in assay [1] (setting [7]) stood at 11.3 µM; in assay [2] (setting [8]), 11.3 µM; in assay [3] (setting [9]), 10.6 µM; in assay [4] (setting [10]), 20.7 µM; in assay [5] (setting [11]), 8.45 µM; in assay [6] (setting [12]), 23.5 µM. The “combinatory effect on SOCE inhibition when paired with CBGA (isobolographic analysis)” value in assay [1] is “sub-additive”.

As to `CCCCCc1cc(O)c2c(c1)OC(C)(C)[C@@H]1CCC(C(=O)O)=C[C@@H]21` [11-COOH-Δ9-THC, (6aR,10aR)-1-hydroxy-6,6-dimethyl-3-pentyl-6a,7,8,10a-tetrahydro-6H-benzo[c]chromene-9-carboxylic acid], in assay [4], the “inhibitory effect in immune cells compared with non-immune HEK293 cells” value is “selective”.

On to `CCCCCc1cc(O)c2c(c1)OC(C)(CCC=C(C)C)C=C2` (stereo not shown) [CBC, 2-methyl-2-(4-methylpent-3-en-1-yl)-7-pentyl-2H-chromen-5-ol], for which the IC50 was 13.1 µM in assay [1] (read-out: IC50 SOCE, purified cannabinoids, Table 5); 26.8 µM in assay [2] (read-out: IC50 SOCE, purified cannabinoids, Luva); 40.8 µM in assay [3] (read-out: IC50 SOCE, purified cannabinoids, U937); 18.7 µM in assay [4] (read-out: IC50 SOCE, purified cannabinoids, HEK-293); > 50 µM in assay [5] (read-out: IC50 SOCE, purified cannabinoids, THP-1, Table 5); 31.6 µM in assay [6] (read-out: IC50 SOCE, purified cannabinoids, RBL-2H3).

For the molecule `CCCCCc1cc(O)c(C/C=C(\C)CCC=C(C)C)c(O)c1` [CBG, (E)-2-(3,7-dimethylocta-2,6-dien-1-yl)-5-penlylbenzene-1,3-diol], the IC50 in assay [1] (setting [7]) is 2.36 µM; in assay [2] (setting [8]) it was 3.29 µM; in assay [3] (setting [9]) it was 33.5 µM; in assay [4] (setting [10]) it was > 50 µM; in assay [5] (setting [11]), 33.6 µM; in assay [6] (setting [12]), > 50 µM. Also, in assay [1], the “combinatory effect on SOCE inhibition when paired with CBGA (isobolographic analysis)” value was “supra-additive”. Moreover, in assay [5] (THP-1), the “combinatory effect when paired” value is recorded as “simple additive agonists”.

As to `CCCCCc1cc2c(c(O)c1C(=O)O)C=C[C@@](C)(CCC=C(C)C)O2` [CBCA, (R)-5-hydroxy-2-methyl-2-(4-methylpent-3-en-1-yl)-7-pentyl-2H-chromene-6-carboxylic acid], the IC50 in assay [1] (setting [7]) was 1.13 µM; in assay [2] (setting [8]), > 50 µM; in assay [3] (setting [9]), > 50 µM; in assay [4] (setting [10]), > 50 µM; in assay [5] (setting [11]), 29.1 µM; in assay [6] (setting [12]), > 50 µM. In addition, the “combinatory effect on SOCE inhibition when paired with CBGA (isobolographic analysis)” value in assay [1] was “Simple additive”.

For the molecule `CCCCCc1cc2c(c(O)c1C(=O)O)[C@@H]1C=C(C)CC[C@H]1C(C)(C)O2` [THCA, (6aR, 10aR)-1-hydroxy-6,6,9-trimethyl-3-pentyl-6a,7,8,10a-tetrahydro-6H-benzo[c]chromene-2-carboxylic acid], in assay [1], the “effect on SOCE Ca^2+ signals, pure compounds” value was “fully block the Ca^2+ signals”. Moreover, the IC50 in assay [1] (setting [7]) came to 2.23 µM; in assay [2] (setting [8]) it was 0.57 µM; in assay [3] (setting [9]), 8.1 µM; in assay [4] (setting [10]), 20.7 µM; in assay [5] (setting [11]), 10.4 µM; in assay [6] (setting [12]), 17.5 µM. Further, the “combinatory effect on SOCE inhibition when paired with CBGA (isobolographic analysis)” value in assay [1] is reported as “Simple additive”; in assay [5] (THP-1), “sub-additive”.
